Data set [1] is described as follows: Metabolic stability in human liver microsomes assessed as intrinsic clearance at 1 uM incubated for 30 mins in presence of NADPH by LC-MS/MS analysis. The data set is classed as ADME, Microsome. The note with it: read-out: CLH.
A short description of data set [2]: Duration (time) of SCID mouse free plasma concentration cover over EGFR insSVD cell IC50 at 50 mg/kg, po. Type of data set: ADME, organism-based. To be noted: in vivo.
The target of data set [3] is T1, Epidermal growth factor receptor (Homo sapiens, UniProt P00533). The experiment in a line: Inhibition of wildtype EGFR (unknown origin) phosphorylation transfected in human NCI-H2073 cells preincubated for 2 hrs followed by EGF stimulation for 10 mins by HTRF assay. Type of data set: cell-based. (In general: Time-resolved FRET reads energy transfer from a long-lived donor to a nearby acceptor.)

A short description of data set [4]: Selectivity ratio of IC50 for inhibition of wildtype EGFR (unknown origin) transfected in human NCI-H2073 cells preincubated for 2 hrs followed by EGF stimulation for 10 mins by HTRF assay to IC50 for inhibition of EGFR D770_N771insSVD mutant (unknown origin) transfected in human NCI-H2073 cells incubated for 2 hrs by HTRF assay. Type of data set: cell-based.

Data set [5] in a line: Metabolic stability in CD-1 mouse hepatocytes assessed as intrinsic clearance measured per 10^6 cells at 1 uM incubated for 120 mins by LC-MS/MS analysis. The note with it: read-out: CLH. Type of data set: ADME, cell-based, Hepatocyte.
The next data set has as its system MDR1. The experiment in a line: Efflux ratio of apparent permeability across basolateral to apical side over apical to basolateral side in MDCKII-MDR1 cells at 1 uM incubated for 2 hrs by LC-MS/MS analysis. The data set is classed as ADME, cell-based, Canis lupus familiaris. To be noted: dog, MDCK-MDR1.
The target in data set [6] is T2, Epidermal growth factor receptor (Homo sapiens, UniProt P00533, D770-N771INSSVD). The data set can be described thus: Inhibition of EGFR D770_N771insSVD mutant (unknown origin) phosphorylation transfected in human NCI-H2073 cells incubated for 2 hrs by HTRF assay. The data set is classed as cell-based.
Data set [7] can be described thus: Metabolic stability in rat hepatocytes assessed as intrinsic clearance measured per 10^6 cells at 1 uM incubated for 120 mins by LC-MS/MS analysis. Type of data set: ADME, cell-based, Hepatocyte. The note with it: read-out: CLH.
Data set [8] in a line: Lipophilicity, logD of compound in octanol and aqueous buffer at pH 7.4 incubated for 2 hrs by shake-flask method based LC-MS/MS analysis. Type of data set: physicochemical.
A further data set relates to MDR1, BCRP. The experiment in a line: Efflux ratio of apparent permeability across basolateral to apical side over apical to basolateral side in MDCKII-MDR1-BCRP cells at 1 uM incubated for 90 mins. Type of data set: ADME, cell-based, Canis lupus familiaris. The note with it: dog.
Data set [9] is described as follows: Drug metabolism in human liver microsomes assessed as O-dealkylation mediated fluoro-phenolic metabolite formation incubated for 60 mins by LC-MS/MS analysis. Type of data set: ADME, Microsome. To be noted: 1 h.
The target in data set [10] is Tyrosine-protein kinase Blk (Homo sapiens) (UniProt P51451). The experiment in a line: Inhibition of BLK (unknown origin) at 0.1 uM relative to control.
A short description of data set [11]: Inhibition of EGFR Ex20ins ASV mutant (unknown origin) transfected in human NCI-H2073 cells. Type of data set: cell-based.
Data set [12] has as its target TRAF2 and NCK-interacting protein kinase (Homo sapiens) (UniProt Q9UKE5). The experiment in a line: Inhibition of TNIK (unknown origin) at 0.1 uM relative to control.
The nature of data set [13]: Antitumor activity against human NCI-H2073 cells harboring wildtype EGFR xenografted in female SCID mouse assessed as tumor growth inhibition at 100 mg/kg, po administered once daily for 15 days relative to control. Type of data set: functional. The note with it: NCI-H2073, 360 h, time 15 day, read-out: TGI. (A xenograft is tissue or cells of one species grown in another, often human tumour cells in immunodeficient mice.)

Data set [14] addresses T3, Tyrosine-protein kinase BTK (Homo sapiens, UniProt Q06187). The experiment in a line: Inhibition of BTK (unknown origin).
In data set [15] the target is Misshapen-like kinase 1 (Homo sapiens) (UniProt Q8N4C8). The data set can be described thus: Inhibition of MINK1 (unknown origin) at 0.1 uM relative to control.
For data set [16], the target named is T3, Tyrosine-protein kinase BTK. The data set can be described thus: Inhibition of BTK (unknown origin) at 0.1 uM relative to control.
A short description of data set [17]: Antitumor activity against human NCI-H2073 cells harboring EGFR D770_N771insSVD mutant xenografted in female SCID mouse assessed as tumor growth inhibition at 100 mg/kg, po administered once daily for 14 days relative to control. Type of data set: functional. To be noted: NCI-H2073, 336 h, time 14 day, read-out: TGI.
A short description of data set [18]: Inhibition of EGFR Ex20ins NPG mutant (unknown origin) transfected in human NCI-H2073 cells. Type of data set: cell-based.
In data set [19] the target is T4, Receptor tyrosine-protein kinase erbB-4 (Homo sapiens, UniProt Q15303). The experiment in a line: Inhibition of ERBB4 (unknown origin).
The next data set relates to Mus musculus. The data set can be described thus: In vivo inhibition of EGFR phosphorylation in female SCID mouse xenografted with NCI-H2073 cells harboring EGFR D770_N771insSVD mutant at 100 mg/kg, po measured after 1 to 6 hrs by immunoblotting analysis. Type of data set: functional, organism-based. The note with it: time 1-6 hrs. In general terms: Immunoblotting shows a protein as a band on a membrane.

The target of data set [20] is T4, Receptor tyrosine-protein kinase erbB-4. The data set can be described thus: Inhibition of ERBB4 (unknown origin) at 0.1 uM relative to control.
Data set [21] can be described thus: Toxicity in female SCID mouse xenografted with human NCI-H2073 cells harboring EGFR D770_N771insSVD mutant assessed as body weight loss at 100 mg/kg, po administered once daily for 14 days. Type of data set: organism-based. The note with it: in vivo, 336 h, time 14 day.
Data set [22] addresses T1, Epidermal growth factor receptor. The data set can be described thus: Inhibition of recombinant wildtype human N-terminal GST-tagged EGFR cytoplasmic domain (669 to 1210 residues) expressed in Sf21 insect cells using Poly(Glu,Tyr) peptide as substrate preincubated for 15 mins followed by substrate addition and measured after 50 mins in presence of ATP by ADP-Glo reagent based assay.

A short description of data set [23]: Selectivity ratio of Ki/Kinact for inhibition of EGFR D770_N771insNPG mutant (unknown origin) using AQT0099 as substrate to Ki/Kinact for inhibition of wildtype EGFR (unknown origin) using AQT0099 as substrate.
Data set [24] concerns the target T1, Epidermal growth factor receptor. The experiment in a line: Inhibition of wildtype EGFR (unknown origin) phosphorylation transfected in human NCI-H2073 cells preincubated for 2 hrs followed by EGF stimulation for 10 mins by ELISA. The data set is classed as cell-based.
For data set [25], the target named is Epidermal growth factor receptor (Homo sapiens, UniProt P00533, D770-N771INSNPG). The data set can be described thus: Inhibition of 6His-tagged TEV-GS fused EGFR D770_N771insNPG mutant (G696 to G1210 reisudes) (unknown origin) expressed in Sf21 cells using Poly(Glu,Tyr) peptide as substrate preincubated for 15 mins followed by substrate addition and measured after 30 mins in presence of ATP by ADP-Glo reagent based assay.

A short description of data set [26]: Selectivity ratio of IC50 for inhibition of wildtype EGFR (unknown origin) transfected in human NCI-H2073 cells preincubated for 2 hrs followed by EGF stimulation for 10 mins by ELISA to IC50 for inhibition of EGFR D770_N771insSVD mutant (unknown origin) transfected in human NCI-H2073 cells incubated for 2 hrs by ELISA. The data set is classed as cell-based.

The target of data set [27] is T2, Epidermal growth factor receptor. The data set can be described thus: Inhibition of EGFR D770_N771insSVD mutant (unknown origin) phosphorylation transfected in human NCI-H2073 cells incubated for 2 hrs by ELISA. The data set is classed as cell-based.

Activity calls are given as the source filed them. The rule behind the calls is not given here. A value given as a limit tells only on which side of the number the result lay.

T2 sequence (P00533 whole entry, looked up, stated change not applied): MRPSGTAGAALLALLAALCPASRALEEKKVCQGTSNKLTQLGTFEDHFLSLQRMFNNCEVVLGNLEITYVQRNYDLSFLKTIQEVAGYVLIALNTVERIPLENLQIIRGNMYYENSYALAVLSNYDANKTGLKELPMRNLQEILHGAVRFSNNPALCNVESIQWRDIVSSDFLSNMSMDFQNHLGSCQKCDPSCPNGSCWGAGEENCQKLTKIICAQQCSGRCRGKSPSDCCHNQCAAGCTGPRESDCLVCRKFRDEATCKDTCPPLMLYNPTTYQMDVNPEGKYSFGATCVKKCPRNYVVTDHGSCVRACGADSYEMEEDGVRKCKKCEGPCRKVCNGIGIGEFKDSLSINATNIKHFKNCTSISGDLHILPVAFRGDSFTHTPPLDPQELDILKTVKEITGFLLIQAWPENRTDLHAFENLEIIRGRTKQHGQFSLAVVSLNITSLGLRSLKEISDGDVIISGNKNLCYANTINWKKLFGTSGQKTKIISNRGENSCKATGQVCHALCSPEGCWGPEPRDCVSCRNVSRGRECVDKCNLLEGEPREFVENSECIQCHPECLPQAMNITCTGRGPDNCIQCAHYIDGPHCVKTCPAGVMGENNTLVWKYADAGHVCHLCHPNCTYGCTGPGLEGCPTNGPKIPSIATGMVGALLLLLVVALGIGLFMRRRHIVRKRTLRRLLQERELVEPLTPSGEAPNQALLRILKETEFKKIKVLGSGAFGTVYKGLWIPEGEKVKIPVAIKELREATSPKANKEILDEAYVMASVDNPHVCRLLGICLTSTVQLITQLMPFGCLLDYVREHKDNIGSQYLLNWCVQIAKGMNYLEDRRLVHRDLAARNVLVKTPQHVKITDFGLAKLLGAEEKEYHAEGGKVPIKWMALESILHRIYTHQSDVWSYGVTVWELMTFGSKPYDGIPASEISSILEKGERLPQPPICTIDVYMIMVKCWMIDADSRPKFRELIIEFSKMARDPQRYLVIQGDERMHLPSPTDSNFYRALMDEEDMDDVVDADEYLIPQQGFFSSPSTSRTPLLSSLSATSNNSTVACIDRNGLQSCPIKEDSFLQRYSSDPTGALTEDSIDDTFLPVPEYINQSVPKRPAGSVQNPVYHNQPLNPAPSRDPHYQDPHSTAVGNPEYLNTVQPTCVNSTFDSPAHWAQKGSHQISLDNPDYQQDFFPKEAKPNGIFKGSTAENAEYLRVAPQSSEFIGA
T1 sequence (P00533 whole entry): as the sequence (P00533 whole entry, looked up, stated change not applied) above
T3 sequence (Q06187 whole entry): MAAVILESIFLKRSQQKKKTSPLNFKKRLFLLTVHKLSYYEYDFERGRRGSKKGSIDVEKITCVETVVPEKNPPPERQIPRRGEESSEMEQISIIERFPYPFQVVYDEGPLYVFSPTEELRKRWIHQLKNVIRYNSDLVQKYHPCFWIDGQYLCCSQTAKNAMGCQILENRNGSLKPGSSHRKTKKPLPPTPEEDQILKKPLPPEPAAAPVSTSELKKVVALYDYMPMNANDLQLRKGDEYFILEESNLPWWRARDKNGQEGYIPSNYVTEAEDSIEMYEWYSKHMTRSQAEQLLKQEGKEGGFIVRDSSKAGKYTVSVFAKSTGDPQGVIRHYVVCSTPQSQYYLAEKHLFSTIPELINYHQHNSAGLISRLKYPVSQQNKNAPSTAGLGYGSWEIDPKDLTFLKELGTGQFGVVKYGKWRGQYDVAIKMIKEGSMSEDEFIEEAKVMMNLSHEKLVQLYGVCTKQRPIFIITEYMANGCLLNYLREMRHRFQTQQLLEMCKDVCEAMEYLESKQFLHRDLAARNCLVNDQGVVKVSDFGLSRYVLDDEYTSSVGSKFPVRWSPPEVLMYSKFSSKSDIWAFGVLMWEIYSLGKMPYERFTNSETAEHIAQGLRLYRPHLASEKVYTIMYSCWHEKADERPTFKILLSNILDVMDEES
T4 sequence (Q15303 whole entry): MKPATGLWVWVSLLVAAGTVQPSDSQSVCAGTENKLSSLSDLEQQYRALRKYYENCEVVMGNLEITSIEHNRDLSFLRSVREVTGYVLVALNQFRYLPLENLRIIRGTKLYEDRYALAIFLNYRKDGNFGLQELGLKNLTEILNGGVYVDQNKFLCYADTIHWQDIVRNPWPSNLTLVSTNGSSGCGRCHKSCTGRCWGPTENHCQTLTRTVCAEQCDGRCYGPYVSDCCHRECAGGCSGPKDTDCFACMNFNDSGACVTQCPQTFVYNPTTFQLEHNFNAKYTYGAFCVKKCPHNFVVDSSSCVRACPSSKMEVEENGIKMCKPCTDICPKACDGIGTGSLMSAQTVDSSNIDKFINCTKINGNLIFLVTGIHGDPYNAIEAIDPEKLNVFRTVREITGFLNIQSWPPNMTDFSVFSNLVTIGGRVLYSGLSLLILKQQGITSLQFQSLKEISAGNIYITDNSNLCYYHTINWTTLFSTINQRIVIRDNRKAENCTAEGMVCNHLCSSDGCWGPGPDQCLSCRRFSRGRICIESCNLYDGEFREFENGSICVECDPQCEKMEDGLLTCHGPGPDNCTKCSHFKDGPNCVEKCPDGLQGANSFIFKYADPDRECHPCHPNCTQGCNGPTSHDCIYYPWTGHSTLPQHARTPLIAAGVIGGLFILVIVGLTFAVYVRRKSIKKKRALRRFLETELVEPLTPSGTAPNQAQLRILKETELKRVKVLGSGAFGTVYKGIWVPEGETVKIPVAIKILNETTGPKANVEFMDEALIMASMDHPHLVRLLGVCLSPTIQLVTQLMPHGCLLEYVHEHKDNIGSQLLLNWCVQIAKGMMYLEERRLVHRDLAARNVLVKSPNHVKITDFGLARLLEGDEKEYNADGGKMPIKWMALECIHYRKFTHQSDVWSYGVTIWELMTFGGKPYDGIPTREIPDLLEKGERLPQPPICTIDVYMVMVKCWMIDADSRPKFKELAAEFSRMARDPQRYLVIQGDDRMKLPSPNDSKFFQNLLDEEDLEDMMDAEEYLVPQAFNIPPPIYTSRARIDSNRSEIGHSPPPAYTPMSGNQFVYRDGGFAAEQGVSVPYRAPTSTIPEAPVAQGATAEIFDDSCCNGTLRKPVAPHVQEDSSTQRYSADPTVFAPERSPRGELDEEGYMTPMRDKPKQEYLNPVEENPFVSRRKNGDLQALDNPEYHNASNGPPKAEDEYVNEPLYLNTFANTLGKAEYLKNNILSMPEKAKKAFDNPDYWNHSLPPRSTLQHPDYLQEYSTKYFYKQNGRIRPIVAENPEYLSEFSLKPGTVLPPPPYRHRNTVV
Chain of Tyrosine-protein kinase Blk (Homo sapiens) (P51451 2-505 limits assumed): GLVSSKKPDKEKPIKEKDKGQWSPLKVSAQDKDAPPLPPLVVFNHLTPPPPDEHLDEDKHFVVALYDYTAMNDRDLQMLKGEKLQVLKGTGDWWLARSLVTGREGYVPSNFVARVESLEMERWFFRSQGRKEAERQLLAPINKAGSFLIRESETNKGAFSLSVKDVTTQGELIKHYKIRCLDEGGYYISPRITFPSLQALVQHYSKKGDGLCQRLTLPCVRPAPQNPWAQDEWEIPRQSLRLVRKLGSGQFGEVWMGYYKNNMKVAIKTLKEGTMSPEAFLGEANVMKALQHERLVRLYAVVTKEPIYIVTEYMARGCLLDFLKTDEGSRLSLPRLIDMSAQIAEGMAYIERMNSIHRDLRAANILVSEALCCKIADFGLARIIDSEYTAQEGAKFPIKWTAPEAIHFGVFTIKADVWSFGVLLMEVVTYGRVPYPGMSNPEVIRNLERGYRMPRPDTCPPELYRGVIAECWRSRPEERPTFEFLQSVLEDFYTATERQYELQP

`C=CC(=O)N1CC[C@H](n2cc(-c3ccncc3)c(-c3cccc(/C=C/c4ccc5c(c4)CN(C)C5=O)c3)n2)C1`: the microsomal CLint at 1 µM in data set [1] worked out at 200 µL/min/mg. In data set [2], the Time came to 0 h. In addition, the IC50 (as a rule, the concentration needed to halve the response being measured) in [3] was above 16 µM; in data set [6], 0.22 µM. For the same compound, the Ratio IC50 in data set [4] was above 73. The hepatocyte CLint at 1 µM came to 29 µL/min/1e6 cells in data set [5] and 28 µL/min/1e6 cells in data set [7]. Also, the efflux ratio (commonly a quotient of directional permeabilities that is used to spot active efflux) at 2 h, 1 µM with MDR1 is 29. Moreover, in [8], the logD – broadly, the decadic logarithm of the distribution of all forms, ionised or not, between an organic phase and buffer at a given pH – at 2 h worked out at 3.9.

For `C=CC(=O)Nc1cc(Nc2nccc(-c3cn(C)c4ccccc34)n2)c(OC)cc1N(C)CCN(C)C` [OSIMERTINIB], the efflux ratio at 1.5 h, 1 µM with MDR1, BCRP worked out at 3.2.

For the compound `C=CC(=O)N1CC[C@H](n2cc(-c3ccncc3)c(-c3ccc(F)c(OCc4ccc5c(c4)CN(C)C5=O)c3)n2)C1`, in data set [1], the microsomal CLint at 1 µM is above 300 µL/min/mg. In addition, the Drug metabolism result in data set [9] is “Metabolite_Detected”. The compound further yielded a logD at 2 h in data set [8] of 2.9.

With `C=CC(=O)N1CC[C@H](n2cc(-c3ccncc3)c(-c3cccc(/C=C/c4ncc(C5CC5)o4)c3)n2)C1`, the inhibition (as a rule, the relative decrease from the control value, in per cent) in data set [10] worked out at 51%; in data set [12] it was 57%; in data set [15] it was 55%; in data set [16], 99%; in data set [20] it was 99%. Further, the IC50 in [11] was 0.067 µM; in data set [14], 0.01 µM; in data set [18] it was 0.055 µM; in data set [19] it was 0.009 µM. The inhibition in vivo at 100 mg/kg in data set [13] is 13%; in data set [17], 62%. Also, the microsomal CLint at 1 µM in data set [1] came out at 214 µL/min/mg. The same compound gave a Time in data set [2] of 12 h. For the same compound, the values for the hepatocyte CLint at 1 µM in data set [5] and in data set [7] were 35 µL/min/1e6 cells and 43 µL/min/1e6 cells, respectively. Moreover, the inhibition result in the data set on Mus musculus is “Active”. Further, the Activity in [21] is below 10%. In data set [8], the logD at 2 h came out at 4.8.

As for `C=CC(=O)N[C@H]1C=C(C)c2c(-c3cnc4ccccc4c3)c3c(N)ncnc3n2C1` [CLN-081], the inhibition in vivo at 100 mg/kg worked out at 63% in [13] and 69% in [17]. Moreover, the IC50 in [22] was below 0.003 µM; in data set [3], 0.077 µM; in [24], 0.19 µM; in data set [6], 0.021 µM; in data set [25] it was below 0.003 µM; in [27] it was 0.057 µM. The Selectivity ratio in data set [23] stood at 0.79. The Ratio IC50 in data set [4] turned out to be 3.6; in [26], 3.4. Besides, the inhibition entry in the data set with Mus musculus is “Active”. In addition, the Activity in [21] is recorded as below 10%.

For the origin of these results see ChEMBL document CHEMBL5506057, “Discovery and Optimization of Potent, Efficacious and Selective Inhibitors Targeting EGFR Exon20 Insertion Mutations” (J Med Chem, 2024).
